# Measured values reported in PMC5095062, “The novel choline kinase inhibitor ICL-CCIC-0019 reprograms cellular metabolism and inhibits cancer cell growth” (Oncotarget, 2016).
# Experiments:
# Assay in all cases: Kinase selectivity screen
# Format in all cases: biochemical
# [1] = target: CSK (Homo sapiens, UniProt P41240)
# Method: (§1) The substantially less demanding synthesis of ICL-CCIC-0019 compared with MN58B bears additional advantages. […] This consequently diminished intracellular PCho concentration, and importantly, the incorporation of [^3H]-choline into lipids (Figure 1D). […] To assess kinase specificity, ICL-CCIC-0019 was tested against a panel of 131 human kinases (Figure 1E and Supplementary Table S1). […] Inhibition greater than 20% was attained for insulin-like growth factor 1 (IGF-1R, 35 ± 7% inhibition), mitogen-activated protein kinase-activated protein kinase 3 (MAPKAP-K3, 33 ± 6%), extracellular signal regulated kinase 8 (ERK8, 31 ± 4%), ribosomal S6 kinase 1 (RSK1, 22 ± 6%), and v-erb-a erythroblastic leukemia viral oncogene homolog 4 (HER4, 21 ± 7%).
# [2] = target: JNK1 (Homo sapiens, UniProt P45983); conditions: JNK1, 10 μM
# Method: as §1
# [3] = target: FGF-R1 (Homo sapiens, UniProt P11362); conditions: FGF-R1, 10 μM
# Method: as §1
# [4] = target: RSK2 (Homo sapiens, UniProt P51812); conditions: RSK2, 10 μM
# Method: as §1
# [5] = target: MARK1 (Homo sapiens, UniProt Q9P0L2); conditions: MARK1, 10 μM
# Method: as §1
# [6] = target: WNK1 (Homo sapiens, UniProt Q9H4A3); conditions: WNK1, 10 μM
# Method: as §1
# [7] = target: VEG-FR (Homo sapiens, UniProt P17948)
# Method: as §1
# [8] = target: PHK (Homo sapiens, UniProt Q16816)
# Method: as §1
# [9] = target: SIK3 (Homo sapiens, UniProt Q9Y2K2); conditions: SIK3, 10 μM
# Method: as §1
# [10] = target: MARK3 (Homo sapiens, UniProt P27448); conditions: MARK3, 10 μM
# Method: as §1
# [11] = target: CK1γ2 (Homo sapiens, UniProt P78368); conditions: CK1γ2, 10 μM
# Method: as §1
# [12] = target: EPH-B2 (Homo sapiens, UniProt P29323); conditions: EPH-B2, 10 μM
# Method: as §1
# [13] = target: IRR (Homo sapiens, UniProt P14616)
# Method: as §1
# [14] = target: MKK2 (Homo sapiens, UniProt P36507); conditions: MKK2, 10 μM
# Method: as §1
# [15] = target: PIM1 (Homo sapiens, UniProt P11309); conditions: PIM1, 10 μM
# Method: as §1
# [16] = target: DYRK2 (Homo sapiens, UniProt Q92630); conditions: DYRK2, 10 μM
# Method: as §1
# [17] = target: SmMLCK (Homo sapiens, UniProt Q15746)
# Method: as §1
# [18] = target: EIF2AK3 (Homo sapiens, UniProt Q9NZJ5); conditions: EIF2AK3, 10 μM
# Method: as §1
# [19] = target: GSK3b (Homo sapiens, UniProt P49841)
# Method: as §1
# [20] = target: DDR2 (Homo sapiens, UniProt Q16832); conditions: DDR2, 10 μM
# Method: as §1
# [21] = target: PKCγ (Homo sapiens, UniProt P05129)
# Method: as §1
# [22] = target: CDK9-Cyclin T1 (Homo sapiens, UniProt P50750); conditions: CDK9-Cyclin T1, 10 μM
# Method: as §1
# [23] = target: S6K1 (Homo sapiens, UniProt P23443); conditions: S6K1, 10 μM
# Method: as §1
# [24] = target: PAK6 (Homo sapiens, UniProt Q9NQU5); conditions: PAK6, 10 μM
# Method: as §1
# [25] = target: SRPK1 (Homo sapiens, UniProt Q96SB4); conditions: SRPK1, 10 μM
# Method: as §1
# [26] = target: TBK1 (Homo sapiens, UniProt Q9UHD2); conditions: TBK1, 10 μM
# Method: as §1
# [27] = target: MLK1 (Homo sapiens, UniProt P80192); conditions: MLK1, 10 μM
# Method: as §1
# [28] = target: MARK4 (Homo sapiens, UniProt Q96L34); conditions: MARK4, 10 μM
# Method: as §1
# [29] = target: DYRK3 (Homo sapiens, UniProt O43781); conditions: DYRK3, 10 μM
# Method: as §1
# [30] = target: MINK1 (Homo sapiens, UniProt Q8N4C8); conditions: MINK1, 10 μM
# Method: as §1
# [31] = target: NEK2a (Homo sapiens, UniProt P51955)
# Method: as §1
# [32] = target: PKBa (Homo sapiens, UniProt P31749)
# Method: as §1
# [33] = target: PRAK (Homo sapiens, UniProt Q8IW41)
# Method: as §1
# [34] = target: EPH-A2 (Homo sapiens, UniProt P29317); conditions: EPH-A2, 10 μM
# Method: as §1
# [35] = target: JNK3 (Homo sapiens, UniProt P53779); conditions: JNK3, 10 μM
# Method: as §1
# [36] = target: CHK1 (Homo sapiens, UniProt O14757); conditions: CHK1, 10 μM
# Method: as §1
# Sequence of EPH-B2 (P29323 19-1055): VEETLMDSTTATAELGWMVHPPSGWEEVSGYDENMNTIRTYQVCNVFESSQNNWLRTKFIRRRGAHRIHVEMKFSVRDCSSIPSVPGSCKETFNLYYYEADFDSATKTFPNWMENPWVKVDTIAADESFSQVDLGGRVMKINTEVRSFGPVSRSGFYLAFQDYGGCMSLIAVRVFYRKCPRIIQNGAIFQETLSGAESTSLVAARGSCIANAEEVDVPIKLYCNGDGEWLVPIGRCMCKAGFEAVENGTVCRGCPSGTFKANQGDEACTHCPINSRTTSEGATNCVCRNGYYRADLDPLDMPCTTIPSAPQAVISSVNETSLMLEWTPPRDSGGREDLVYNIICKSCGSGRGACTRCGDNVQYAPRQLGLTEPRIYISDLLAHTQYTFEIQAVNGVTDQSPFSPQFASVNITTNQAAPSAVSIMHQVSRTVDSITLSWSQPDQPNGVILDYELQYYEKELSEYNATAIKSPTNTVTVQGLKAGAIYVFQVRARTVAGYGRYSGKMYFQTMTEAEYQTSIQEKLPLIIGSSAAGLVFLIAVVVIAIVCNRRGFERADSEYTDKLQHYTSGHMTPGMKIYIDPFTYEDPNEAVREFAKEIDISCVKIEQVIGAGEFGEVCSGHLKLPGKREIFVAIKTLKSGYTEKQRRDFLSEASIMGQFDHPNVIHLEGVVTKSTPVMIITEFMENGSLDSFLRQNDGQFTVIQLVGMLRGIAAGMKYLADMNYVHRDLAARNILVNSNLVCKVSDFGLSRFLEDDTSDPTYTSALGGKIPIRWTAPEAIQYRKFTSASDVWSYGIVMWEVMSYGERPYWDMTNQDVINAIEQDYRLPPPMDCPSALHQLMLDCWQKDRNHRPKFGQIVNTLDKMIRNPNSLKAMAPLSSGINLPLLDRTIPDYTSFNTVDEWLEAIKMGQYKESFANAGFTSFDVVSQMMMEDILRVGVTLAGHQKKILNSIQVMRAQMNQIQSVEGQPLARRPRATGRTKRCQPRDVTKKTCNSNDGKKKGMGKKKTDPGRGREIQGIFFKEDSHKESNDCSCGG
# Sequence of SIK3 (Q9Y2K2 whole entry): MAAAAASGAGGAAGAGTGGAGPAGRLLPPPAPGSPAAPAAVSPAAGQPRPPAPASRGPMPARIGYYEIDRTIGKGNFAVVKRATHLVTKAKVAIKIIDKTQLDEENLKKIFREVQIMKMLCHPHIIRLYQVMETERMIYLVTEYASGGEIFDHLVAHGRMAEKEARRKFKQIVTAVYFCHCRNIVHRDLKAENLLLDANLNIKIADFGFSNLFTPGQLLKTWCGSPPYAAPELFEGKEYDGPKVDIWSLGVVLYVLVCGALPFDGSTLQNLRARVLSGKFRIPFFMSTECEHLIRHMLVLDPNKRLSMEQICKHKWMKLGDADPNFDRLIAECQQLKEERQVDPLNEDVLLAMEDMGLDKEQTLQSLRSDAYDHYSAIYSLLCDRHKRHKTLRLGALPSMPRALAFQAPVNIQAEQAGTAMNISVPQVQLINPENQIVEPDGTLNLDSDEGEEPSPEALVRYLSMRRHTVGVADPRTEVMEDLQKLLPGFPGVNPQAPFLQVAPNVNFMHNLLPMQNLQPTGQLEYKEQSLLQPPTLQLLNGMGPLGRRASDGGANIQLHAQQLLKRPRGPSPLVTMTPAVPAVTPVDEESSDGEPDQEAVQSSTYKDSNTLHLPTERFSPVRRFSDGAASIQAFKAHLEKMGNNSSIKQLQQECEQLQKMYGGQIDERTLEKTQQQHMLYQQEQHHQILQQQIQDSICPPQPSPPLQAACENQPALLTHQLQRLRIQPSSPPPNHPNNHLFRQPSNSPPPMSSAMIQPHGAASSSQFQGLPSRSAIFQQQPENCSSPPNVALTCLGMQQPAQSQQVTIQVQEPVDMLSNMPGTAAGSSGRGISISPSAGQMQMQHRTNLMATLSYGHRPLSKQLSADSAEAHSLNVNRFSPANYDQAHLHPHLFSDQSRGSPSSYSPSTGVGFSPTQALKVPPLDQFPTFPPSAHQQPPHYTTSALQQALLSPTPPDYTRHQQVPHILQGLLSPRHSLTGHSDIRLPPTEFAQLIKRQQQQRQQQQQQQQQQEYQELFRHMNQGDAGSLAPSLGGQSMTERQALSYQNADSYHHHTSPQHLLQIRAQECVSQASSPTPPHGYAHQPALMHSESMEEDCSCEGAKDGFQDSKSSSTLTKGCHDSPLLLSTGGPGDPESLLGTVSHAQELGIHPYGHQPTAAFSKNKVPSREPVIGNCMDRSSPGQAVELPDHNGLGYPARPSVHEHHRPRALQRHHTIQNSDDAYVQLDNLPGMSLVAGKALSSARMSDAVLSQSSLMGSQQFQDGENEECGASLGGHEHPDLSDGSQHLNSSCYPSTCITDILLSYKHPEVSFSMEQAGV
# Sequence of CK1γ2 (P78368 whole entry): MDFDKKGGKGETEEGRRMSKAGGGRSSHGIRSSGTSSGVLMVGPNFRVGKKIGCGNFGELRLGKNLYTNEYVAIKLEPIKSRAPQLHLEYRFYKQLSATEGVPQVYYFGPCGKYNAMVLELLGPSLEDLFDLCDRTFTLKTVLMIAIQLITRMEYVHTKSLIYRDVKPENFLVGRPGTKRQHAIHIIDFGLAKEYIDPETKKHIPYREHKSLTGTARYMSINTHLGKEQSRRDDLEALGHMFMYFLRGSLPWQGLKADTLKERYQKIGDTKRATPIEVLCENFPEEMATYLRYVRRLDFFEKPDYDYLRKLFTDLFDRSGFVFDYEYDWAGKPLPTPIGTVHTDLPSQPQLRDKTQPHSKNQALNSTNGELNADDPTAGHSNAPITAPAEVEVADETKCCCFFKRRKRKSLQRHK
# Sequence of PAK6 (Q9NQU5 whole entry): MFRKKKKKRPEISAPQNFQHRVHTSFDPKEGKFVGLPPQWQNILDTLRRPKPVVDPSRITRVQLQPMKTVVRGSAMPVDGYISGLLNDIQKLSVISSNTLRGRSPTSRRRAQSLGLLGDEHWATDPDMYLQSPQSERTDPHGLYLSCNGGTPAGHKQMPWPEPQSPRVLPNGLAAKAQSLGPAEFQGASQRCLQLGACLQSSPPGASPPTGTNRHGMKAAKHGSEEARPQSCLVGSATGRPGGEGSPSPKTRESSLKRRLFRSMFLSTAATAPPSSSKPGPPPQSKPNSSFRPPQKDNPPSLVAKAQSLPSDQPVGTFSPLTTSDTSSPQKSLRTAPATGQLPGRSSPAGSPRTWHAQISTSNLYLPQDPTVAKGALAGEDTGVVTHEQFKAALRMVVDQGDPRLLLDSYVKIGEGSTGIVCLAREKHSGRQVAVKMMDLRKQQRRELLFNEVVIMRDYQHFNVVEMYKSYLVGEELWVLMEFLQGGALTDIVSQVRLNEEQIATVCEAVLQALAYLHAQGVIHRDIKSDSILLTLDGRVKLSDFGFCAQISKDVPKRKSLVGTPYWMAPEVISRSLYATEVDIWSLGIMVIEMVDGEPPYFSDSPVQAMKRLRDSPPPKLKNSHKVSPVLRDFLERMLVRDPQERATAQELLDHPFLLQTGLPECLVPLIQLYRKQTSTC
# Sequence of JNK1 (P45983 whole entry): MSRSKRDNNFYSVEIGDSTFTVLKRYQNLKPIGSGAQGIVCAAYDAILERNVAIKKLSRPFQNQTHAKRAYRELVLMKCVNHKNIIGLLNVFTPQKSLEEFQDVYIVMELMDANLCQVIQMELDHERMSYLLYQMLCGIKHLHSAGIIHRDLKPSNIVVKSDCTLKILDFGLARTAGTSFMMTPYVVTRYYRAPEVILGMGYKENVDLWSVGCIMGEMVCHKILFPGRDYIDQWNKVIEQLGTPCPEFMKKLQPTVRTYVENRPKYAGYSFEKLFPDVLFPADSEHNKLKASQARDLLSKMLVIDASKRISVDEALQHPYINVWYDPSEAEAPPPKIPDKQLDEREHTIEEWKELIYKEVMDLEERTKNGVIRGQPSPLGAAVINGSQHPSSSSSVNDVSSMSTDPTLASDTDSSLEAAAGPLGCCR
# Sequence of PHK (Q16816 whole entry): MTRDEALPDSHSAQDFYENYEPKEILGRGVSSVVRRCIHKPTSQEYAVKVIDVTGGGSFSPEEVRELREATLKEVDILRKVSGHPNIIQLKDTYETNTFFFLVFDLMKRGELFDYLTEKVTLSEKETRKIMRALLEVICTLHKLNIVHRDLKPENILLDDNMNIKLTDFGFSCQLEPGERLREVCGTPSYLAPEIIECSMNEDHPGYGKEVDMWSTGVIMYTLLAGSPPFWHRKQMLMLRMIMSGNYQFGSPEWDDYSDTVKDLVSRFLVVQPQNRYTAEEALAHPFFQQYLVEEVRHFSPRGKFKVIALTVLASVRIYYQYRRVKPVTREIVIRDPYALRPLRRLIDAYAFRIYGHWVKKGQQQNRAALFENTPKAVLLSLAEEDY
smiles,measurement,setting,value
CN(C)c1cc[n+](CCCCCCCCCCCC[n+]2ccc(N(C)C)cc2)cc1 [ICL-CCIC-0019],remaining activity at 10 µM,[1],96%
same,remaining activity at 10 µM,[2],98%
same,remaining activity at 10 µM,[3],92%
same,remaining activity at 10 µM,[4],105%
same,remaining activity at 10 µM,[5],103%
same,remaining activity at 10 µM,[6],102%
same,remaining activity at 10 µM,[7],80%
same,remaining activity at 10 µM,[8],94%
same,remaining activity at 10 µM,[9],102%
same,remaining activity at 10 µM,[10],106%
same,remaining activity at 10 µM,[11],92%
same,remaining activity at 10 µM,[12],90%
same,remaining activity at 10 µM,[13],92%
same,remaining activity at 10 µM,[14],95%
same,remaining activity at 10 µM,[15],102%
same,remaining activity at 10 µM,[16],96%
same,remaining activity at 10 µM,[17],104%
same,remaining activity at 10 µM,[18],97%
same,remaining activity at 10 µM,[19],94%
same,remaining activity at 10 µM,[20],85%
same,remaining activity at 10 µM,[21],93%
same,remaining activity at 10 µM,[22],95%
same,remaining activity at 10 µM,[23],88%
same,remaining activity at 10 µM,[24],107%
same,remaining activity at 10 µM,[25],106%
same,remaining activity at 10 µM,[26],108%
same,remaining activity at 10 µM,[27],91%
same,remaining activity at 10 µM,[28],95%
same,remaining activity at 10 µM,[29],106%
same,remaining activity at 10 µM,[30],100%
same,remaining activity at 10 µM,[31],101%
same,remaining activity at 10 µM,[32],101%
same,remaining activity at 10 µM,[33],101%
same,remaining activity at 10 µM,[34],93%
same,remaining activity at 10 µM,[35],92%
same,remaining activity at 10 µM,[36],97%
